Test results published in paper PMC12040169 (PLOS Biology, 2025).

Assay: in vitro
Details: human, hela cells, % viability

In order of rising viability at 28.5 h, 10 µM:
1. c1ccc(COc2ccc3[nH]c4c(c3c2)CCNC42CCN(Cc3ccccc3-c3ccccc3)C2)cc1 (stereo not drawn) [CBK039909]  73.9%
2. Cc1ccc(S(=O)(=O)NC2c3cccc4cccc(c34)C2Sc2n[nH]c(N)n2)cc1 (stereo not drawn) [CBK265875]  77.6%
3. NC(=O)c1c(NC(=O)CSc2ccc(Cl)cc2)sc2c1CCCC2 [CBK263101]  77.7%
4. CN(C)c1cccc(C2CCCN2c2nc3c(cnn3C)c(=O)[nH]2)c1 (stereo not drawn) [CBK305220]  78.6%
5. COc1ccc(C(C)C)cc1-c1cnc(N)c(NCCCN2CCOCC2)n1 [CBK063625]  79.4%
6. O=C(NCCc1ccccc1)c1ccccc1NS(=O)(=O)N1CCCC1 [CBK268407]  80.5%
7. COc1ccc2sc(N(Cc3cccnc3)C(=O)CCc3ccccc3)nc2c1 [CBK294423]  81.2%
8. Fc1cccc(-c2nc3cnccn3c2NC2CCCC2)c1 [CBK283780]  81.4%
9. CCn1cc(C(=O)O)c(=O)c2cc(F)c(N3CCN(C(=S)Nc4ccc5c(c4)OCO5)CC3)cc21 [CBK268027]  83.1%
10. COc1ccc2cc(CNc3ccc(Oc4ccccc4)cc3)c(=O)[nH]c2c1 [CBK286158]  83.7%
11. C[S+]([O-])CCNC(=O)c1cc2c(Cl)cccc2[nH]1 (stereo not drawn) [CBK283304]  83.9%
12. COc1ccc(CNC(=O)c2cc(S(=O)(=O)N(C)C)ccc2OC)cc1 [CBK307586]  85.1%
13. Cc1cc(C)nc(SCc2nc3ccc([N+](=O)[O-])cc3[nH]2)n1 [CBK264634]  85.3%
14. O=C(NCCN1CCCC1)c1ccc(Nc2cncc(-c3ccc(O)cc3)n2)c(Cl)c1 [CBK122666]  85.4%
15. COC(=O)C1CCCN1CC(=O)NCc1ccc(OCC(N)=O)cc1 (stereo not drawn) [CBK304970]  86.1%
16. Cc1nn(C)c2nc(NCc3ccc(C(=O)N4CCCCC4)cc3)sc12 [CBK306826]  86.6%
17. O=C(O)c1cccc2c1C(=O)N(Cc1ccccc1F)C2 [CBK291172]  86.8%
18. Cc1ccccc1NC(=O)CC1c2ccccc2CC(C)(C)N1C (stereo not drawn) [CBK262567]  87.4%
19. O=C(c1cc(F)cc(F)c1)N1CCC(c2n[nH]c3ncccc23)CC1 [CBK284909]  87.9%
20. CCc1cccc(C)c1NC(=O)CSc1nnc(-c2cccnc2)n1C [CBK267582]  88.4%
21. COc1ccccc1CN1CCC(Cc2ccccc2-c2ccc(C)cc2C)(C(=O)O)CC1 [CBK286419]  88.4%
22. Cc1nc([N+](=O)[O-])c(NCCO)n1Cc1ccccc1 [CBK261422]  88.5%
23. Cc1cnc2[nH]c(C3CCN(C(=O)c4cnn(C)c4C)CC3)cc2c1 [CBK284684]  88.8%
24. CN(Cc1ccccc1)Cc1cc(CC2(NCc3ccccc3)COC2)no1 [CBK289645]  88.9%
25. OCC12COC3c4ccccc4C(OC1)N32 (stereo not drawn) [CBK006347]  89.5%
26. CC(=O)Nc1nc(-c2ccc(Cl)s2)cs1 [CBK287317]  89.5%
27. COc1ccc(Cn2c(=O)n(S(=O)(=O)c3cccc(-c4nnc(C)o4)c3)c3ccccc32)cc1 [CBK106558]  89.8%
28. COCCNc1nc2c([nH]1)c(=O)n(C)c(=O)n2C [CBK288104]  90.3%
29. O=S(=O)(NCc1ccccc1)c1cccc2nonc12 [CBK265692]  90.4%
30. CCn1c(=O)n(CC2(O)CCCOC2)c2cc(S(=O)(=O)N(C)C)ccc21 (stereo not drawn) [CBK304788]  90.6%
31. CC(C)(N)CN(Cc1ccccc1)C(=O)/C=C/c1ccccc1 [CBK013891T]  90.8%
32. Nc1cccc(-c2nc(NC(=O)Cc3ccccc3)cnc2-c2ccc(F)cc2)c1 [CBK037550]  91.3%
33. O=C(N/N=C/c1cccnc1)C1CCCN(S(=O)(=O)c2ccccc2)C1 (stereo not drawn) [CBK262712]  91.5%
34. CC(C)(C)C(=O)CSc1nnc(-c2ccccn2)s1 [CBK006894]  91.9%
35. CCC(=O)N1CCCC1c1nc(C)c2c(n1)N(Cc1ccccc1OC)CCC2 (stereo not drawn) [CBK285642]  91.9%
36. O=C(O)CCc1ccc(-c2ccc(F)cc2)n1-c1cc(Cl)ccc1O [CBK131891]  92%
37. CC(C)(C)CCNCCN1CCOCC1 [CBK001895]  92.2%
38. c1cnc(-c2ccc3c(c2)OCO3)c(OC2CCCCC2)n1 [CBK106706]  92.4%
39. COc1cccc(CNc2ccc3c4c(cccc24)CC3)c1OC [CBK269688]  92.5%
40. O=C1CC(C(=O)Nc2ccc3c(c2)OCO3)n2c(nc3ccccc32)N1 (stereo not drawn) [CBK270177]  93.6%
41. COc1ccnc(C(=O)N(Cc2ccccn2)CC2CCCO2)c1 (stereo not drawn) [CBK307303]  94.1%
42. Oc1ccc(Nc2cc(-c3ccc(Cl)cc3)ncn2)cc1 [CBK090751]  94.3%
43. O=C(CC1S/C(=N/N=C/c2ccc(-c3cc([N+](=O)[O-])ccc3Cl)o2)NC1=O)Nc1ccccc1 (stereo not drawn) [CBK264592]  95.3%
44. COc1ccc(N2C(=O)CC(Sc3ncccc3C(=O)O)C2=O)cc1 (stereo not drawn) [CBK263387]  95.5%
45. O=C(NCCN1CCC(O)(c2cccc(F)c2)CC1)C1CCCCC1 [CBK283281]  96.2%
46. CC(C)(CO)CNc1cncc(-c2ccccc2CO)n1 [CBK066088]  96.3%
47. O=C(NC(c1ccc(-c2ccccc2)cc1)c1cnccn1)C1CCN(CCCN2C(=O)C3CCCCC3C2=O)CC1 (stereo not drawn) [CBK147856]  97.3%
48. O=C1CC[C@@H](NCc2cccc(O)c2)[C@H](c2cc(F)cc(F)c2)N1 [CBK282909]  98%
49. Nc1nc(CSCCO)nc(Nc2ccc(F)cc2)n1 [CBK265542]  98.3%
50. CCCN1CC(NS(=O)(=O)c2cc(-n3cccn3)ccc2C)CC1=O (stereo not drawn) [CBK306835]  98.3%
51. CCOC(=O)c1cn(CC#N)c2cc(F)c(F)cc2c1=O [CBK304211]  98.3%
52. Cc1csc(N2CCN(CC(O)COCc3ccco3)CC2)n1 (stereo not drawn) [CBK306151]  98.5%
53. COc1cc(C2C3=C(COC3=O)Nc3[nH]nc(C)c32)ccc1O (stereo not drawn) [CBK288146]  98.5%
54. COc1ccccc1CC(=O)N1CCC(c2onc3c2CCC3)CC1 [CBK284464]  99.2%
55. COc1ccc(S(=O)(=O)N2CCCC(C(=O)Nc3ccc(C(N)=O)cc3)C2)cc1C (stereo not drawn) [CBK269163]  99.4%
56. COc1ccc(C(=O)NCCc2ccc(S(N)(=O)=O)cc2)cc1[N+](=O)[O-] [CBK264335]  99.8%
57. COc1cc(CNc2ncc(-c3ccc(N4CCOCC4)cc3)n3ccnc23)cc(OC)c1OC [CBK091219]  100%
58. FC(F)(F)Oc1ccc(CNc2nccnc2-c2cccs2)cc1 [CBK036806]  100%
59. O=C(O)c1ccc(COc2ccc(/C=C3\SC(=S)N(Cc4cccnc4)C3=O)cc2)cc1 [CBK264637]  101%
60. Cc1nc(Nc2ccc(Cl)cc2)nc(Oc2ccccc2)n1 [CBK003915]  101%
61. COc1cccc(COc2cnc(-c3ccccc3)c(N)n2)c1OC [CBK145066]  101%
62. c1ccc(Cn2c(CN3CCCCC3)nc3ccccc32)cc1 [CBK269237]  102%
63. O=C(NC1CC1)[C@H]1CN2CCC1C[C@@H]2Cn1cc(CC2CCCCC2)nn1 (stereo partly drawn) [CBK288739]  103%
64. Cn1cccc1CN1CCCC(n2c(=O)oc3ccccc32)C1 (stereo not drawn) [CBK285111]  103%
65. COc1ccc([C@H]2CN(C(=O)c3ccccc3)[C@@H]3CCN(Cc4cccs4)C[C@H]23)cc1 [CBK285582]  103%
66. C=CCn1c(Cc2csc(NC(=O)c3ccc(OC)cc3O)n2)n[nH]c1=S [CBK296752]  104%
67. Cc1cc(CN(C)Cc2ccc(N3CCCC3)c(F)c2)n[nH]1 [CBK281953]  104%
68. O=c1cc(CN2CCC(Cc3ccccc3)CC2)[nH]c(=O)[nH]1 [CBK126388]  104%
69. O=C(O)CCc1ccc(-c2cc(N3CCN(CC(=O)N4CCCC4)CC3)ncn2)cc1 [CBK091079]  104%
70. CCC(=O)N1CCC2(C/C=C/CC(=O)Nc3cccc(n3)C3CN(CCO3)C(=O)CN(C)C2=O)CC1 (stereo not drawn) [CBK292004]  105%
71. Clc1cccc(-c2cc(NCc3cccs3)n3nccc3n2)c1 [CBK037238]  105%
72. COc1ccccc1CC(=O)Nc1ccc(-c2nnc(-c3ccc(C)cc3)o2)cc1 [CBK268329]  105%
73. Cc1cc([N+](=O)[O-])ccc1NC(=O)Cn1cnc2c1c(=O)n(C)c(=O)n2C [CBK263162]  105%
74. COc1ccc(-c2cc(C(F)(F)F)nc(S(=O)(=O)CCC(=O)Nc3ccc(C)cc3)n2)cc1 [CBK266235]  105%
75. COc1ccc(C(=O)N2CCC3(CCN(C(=O)Cc4cc(C)no4)C3)C2)cc1OC (stereo not drawn) [CBK131784]  106%
76. CSCCCNC(=O)N1CCCC(CO)C1 (stereo not drawn) [CBK156031]  106%
77. CN(C)CCC1OC(=O)N(c2ccccc2)C1=O (stereo not drawn) [CBK010134C]  107%
78. COc1cccc2sc(Nc3nc(C)c(C(C)=O)s3)nc12 [CBK287471]  109%
79. O=S(=O)(c1cccc(C(F)(F)F)c1)n1ccc2c(CN3CCCC3)cccc21 [CBK116168T]  111%
80. CC(=O)NC(c1ccccn1)C1CCCN(C(=O)C(C)C)C1 (stereo not drawn) [CBK285030]  111%
81. Cc1cc(-n2c(C)cc(C(=O)CSc3n[nH]c(=O)n3CC3CCCO3)c2C)no1 (stereo not drawn) [CBK295589]  112%
82. O=C(CCc1cccnc1)N1CCCCC1c1nc2cc(F)ccc2[nH]1 (stereo not drawn) [CBK291106]  112%
83. O=C(CCc1ccccc1F)NC1CCc2nccn2C1 (stereo not drawn) [CBK306124]  113%
84. O=C(CC1C(=O)NCCN1C(=O)Nc1ccc(OCc2ccccc2)cc1)Nc1ccc(F)cc1 (stereo not drawn) [CBK086203]  113%
85. S=C(Nc1ccccc1)Nc1nc2ccccc2n1CCOc1ccccc1 [CBK265487]  113%
86. CC(=O)NC(c1nccs1)C1CCCN(C(=O)C2CCCCC2)C1 (stereo not drawn) [CBK282170]  113%
87. COc1ccc(CN2C(=S)N(CC3CCCCC3)[C@H]3[C@@H]2[C@H]2OC(=O)[C@@H]3C[C@H]2O)cc1 [CBK288936]  117%
